Tests used:
[1] = tested on: murine gastric and bladder tumors; conditions: immune-competent mice; cited from earlier work
[2] = Cytotoxicity Assay (CellTiter-Glo, 72 hour drug incubation); conditions: human, HCT116 cells
Procedure: (§1) HCT116 cells were seeded in 96 well plates (Greiner Bio-One, Monroe, N.C.) and allowed to settle overnight. Test compound dissolved in dimethyl sulfoxide (DMSO) was added and drug incubation proceeded for 72 hours. […] After 72 hour, 50 L of CellTiter-Glo Luminescent Cell Viability Assay reagent (Promega Corporation, Madison, Wis.) was added to cells in 200 L of cellular media. After a proscribed incubation period, luminescence was measured using a TopCount NXT plate reader (PerkinElmer, Waltham, Mass.).

HCT116 cells [3] = experiment: Synergy between Nampt inhibitor and chemotherapeutic compounds (MacSynergy II, CellTiter-Glo); type: cell-based; conditions: combined with a known Nampt inhibitor
Procedure: Experiments were conducted in HCT116 cells. […] Prior to combinations of compounds, dose curves of cells treated with a single compound were generated to define relevant compound doses to use in the combination analysis. Typically, relevant doses were those found in the inflection portion of a sigmoidal dose-response curve. Utilizing these optimized conditions, cells were dosed with Nampt inhibitor plus the test compound at a variety of concentrations of each, and viability was assessed using CellTiter-Glo. Data was processed using the MacSynergy™ II algorithm, which subtracted from actual data a prediction of compound additivity.

Human NAMPT = biological target: T1, Human NAMPT (Homo sapiens, UniProt P43490); experiment: Nampt Activity Assay (coupled enzyme, resazurin/diaphorase fluorometric detection of NADH); type: biochemical; conditions: read-out: vitro IC50 (Nampt activity assay)
T1 construct: 6xHis (N); made in house; host or cells: E. coli BL21-AI
Text: 5-phosphoribosyl-1-pyrophosphate (PRPP), ATP, NaM, NaMN, Triton X-100, UDP-glucose and diaphorase were purchased from Sigma-Aldrich, St. Louis, Mo. Human NAMPT, NMN adenylyltransferase (NMNAT1) and UDP-glucose dehydrogenase (UGDH) encoding DNAs were each inserted into a house-modified E. Coli expression vector such that the expressed proteins carried an N-terminal 6×His tag. The His-tagged proteins were expressed in the BL21-AI E. Coli expression strain (Invitrogen Corporation, Carlsbad, Calif.) following induction by 0.2% L-arabinose and 0.5 mM IPTG at 30° C. Proteins were purified on Ni-NTA resin (Qiagen, Germantown, Md.).
The assay for Nampt catalytic activity was constructed based on a previously published coupled enzyme fluorometric technique, which employs NADH as ultimate analyte (Revollo, J. R. et al. Biol. Chem. 279, 50754-50763 (2004)). A substantial improvement in assay sensitivity was achieved by switching from direct detection to a resazurin/diaphorase-based fluorometric detection system for NADH (Guilbault, G. G., and Kramer, D. N. Anal. Chem. 37, 1219-1221 (1965)). The standard inhibition analyses were performed in a real-time mode in 96-well microtiter plates using 50 mM Tris-HCl, pH 7.5, 1% DMSO (v/v), 0.01% Triton X-100 (v/v), 10 mM MgCl2, 2 mM ATP, […], […], […], as well as the following detection reagents: 5 nM Nmnat, 200 nM Ugdh, 200 µM UDP-glucose, 0.02 U/mL diaphorase and […]. Incubation of samples at room temperature for up to 3 hours was followed by quantification of fluorescence intensities at excitation and emission wavelengths of 510 nm and 590 nm, respectively, using Gemini XS plate reader (Molecular Devices, Sunnyvale, Calif.). The counter-assay intended to disqualify false positives, such as inhibitors of detection enzymes or fluorescence quenchers, was carried out essentially as described above with an exception that 1 μM NaMN was substituted for Nampt.

PARP in HCT116 cells = experiment: PARP activation by 5-FU; type: cell-based
Text: Kim, M. Y. et al. Genes & Development 19:1951-67 (2005)). […] TS inactivation is know to cause an imbalance in nucleotide pools that subsequently promotes aberrant uracil incorporation into DNA (Berger S. H. et al. Biochemical Pharmacology 76:697-706 (2008)).

HCT116 cells [4] = tested on: HCT116 cells
Procedure: as §1

PARP = conditions: in vitro and in vivo models of cerebral ischemia; cited from earlier work

T1 sequence (P43490 whole entry): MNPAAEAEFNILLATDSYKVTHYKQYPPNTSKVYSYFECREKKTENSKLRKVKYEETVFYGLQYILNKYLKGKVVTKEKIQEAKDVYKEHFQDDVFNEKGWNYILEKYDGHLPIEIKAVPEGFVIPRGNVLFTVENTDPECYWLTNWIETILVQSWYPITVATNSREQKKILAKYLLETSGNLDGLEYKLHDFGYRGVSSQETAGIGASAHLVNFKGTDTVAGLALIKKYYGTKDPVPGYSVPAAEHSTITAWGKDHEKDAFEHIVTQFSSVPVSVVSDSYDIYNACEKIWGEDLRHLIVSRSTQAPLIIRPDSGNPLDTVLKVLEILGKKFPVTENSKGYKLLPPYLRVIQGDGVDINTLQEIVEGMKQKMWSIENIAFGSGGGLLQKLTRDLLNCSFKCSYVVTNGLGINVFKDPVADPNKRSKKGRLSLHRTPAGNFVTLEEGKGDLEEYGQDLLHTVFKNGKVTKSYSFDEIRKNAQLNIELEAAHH

IC50 (Human NAMPT) [µM] | Compound | IC50 at 72 h [2] [µM] | also measured
– | O=C(/C=C/c1cccnc1)NCCCCC1CCN(C(=O)c2ccccc2)CC1 [AP0866] | – | effect on tumor growth, co-administration with L-1MT [1]: additive inhibitory effect
– | O=C(NCc1cccnc1)Nc1ccc(OCCc2ccc(F)cc2-c2ccnc(N3CCNCC3)c2)cc1 [Example 759, 1-[4-(2-{4-Fluoro-2-[2-(piperazin-1-yl)pyridin-4-yl]phenyl}ethoxy)phenyl]-3-(pyridin-3-ylmethyl)urea] | ~0.0019 | –
– | COS(C)(=O)=O [methyl methanesulfonate (MMS), methyl methanesulfonate] | – | drug interaction (synergy, additivity, or antagonism) with Nampt inhibitor (HCT116 cells [3]): synergy
~0.0034 | C[C@H](Oc1ccccc1-c1ccccc1)c1nc(CNC(=O)NCc2cccnc2)cs1 [Example 363, 1-({2-[(1S)-1-(Biphenyl-2-yloxy)ethyl]-1,3-thiazol-4-yl}methyl)-3-(pyridin-3-ylmethyl)urea] | ~0.29 | –
~0.0024 | N#C/N=C(/NCc1ccc(COc2ccccc2-c2ccccc2)cc1)Nc1ccncc1 [Example 605, 1-{4-[(Biphenyl-2-yloxy)methyl]benzyl}-2-cyano-3-pyridin-4-ylguanidine] | ~0.0011 | –
– | Cc1nc2ccc(CN(C)c3ccc(C(=O)N[C@@H](CCC(=O)O)C(=O)O)s3)cc2c(=O)[nH]1 [raltitrexed] | – | drug interaction (synergy, additivity, or antagonism) with Nampt inhibitor (HCT116 cells [3]): synergized
– | O=c1[nH]cc(F)c(=O)[nH]1 [5-fluorouracil (5-FU), 5-fluorouracil] | – | PARP activation (PARP in HCT116 cells): PARP activator
~1.3 | N#C/N=C(\NCCOc1ccccc1-c1ccccc1)Nc1cccnc1 [Example 641, 1-[2-(Biphenyl-2-yloxy)ethyl]-2-cyano-3-pyridin-3-ylguanidine] | ~3.2 | –
~0.0063 | O=C(NCc1cccnc1)Nc1ccc(C[S+]([O-])c2ccccc2-c2ccccc2)cc1 (centres unmarked) [Example 210, 1-{4-[(biphenyl-2-ylsulfinyl)methyl]phenyl}-3-(pyridin-3-ylmethyl)urea] | ~0.039 | –
– | O=C(c1cc(Cc2n[nH]c(=O)c3ccccc23)ccc1F)N1CCN(C(=O)C2CC2)CC1 [olaparib] | – | drug interaction (synergy, additivity, or antagonism) with Nampt inhibitor (HCT116 cells [3]): antagonism
– | 4-Fluoro-2-{2-[3- (morpholin-4- yl)azetidin-1- yl]pyridin-4-yl}- N-(4-{[(pyridin- 3-ylmethyl) carbamoyl] amino}phenyl) benzenesulfon- amide [Example 762] | – | IC50 (HCT116 cells [4]): ~0.0022 µM
~0.01 | O=C(NCc1cccnc1)Nc1ccc(NS(=O)(=O)c2cc(C(=O)NCC3CCCN3)c(Cl)cc2F)cc1 (centres unmarked) [Example 831, 2-Chloro-4-fluoro-5-[(4-{[(pyridin-3-ylmethyl)carbamoyl]amino}phenyl)sulfamoyl]-N-(pyrrolidin-2-ylmethyl)benzamide] | – | –
~0.0018 | O=C(NCc1cccnc1)Nc1ccc(COc2cc(C(F)(F)F)ccc2Cl)cc1 [Example 164, 1-(4-{[2-Chloro-5-(trifluoromethyl)phenoxy]methyl}phenyl)-3-(pyridin-3-ylmethyl)urea] | ~0.074 | –
~0.002 | O=C(NCCCNS(=O)(=O)c1ccccc1-c1ccccc1)NCc1cccnc1 [Example 152, N-(3-{[(pyridin-3-ylmethyl)carbamoyl]amino}propyl)biphenyl-2-sulfonamide] | ~0.055 | –
~0.011 | COc1cc(N/C(=N/C#N)NCc2ccc(NS(=O)(=O)c3ccccc3-c3ccccc3)cc2)ccn1 [Example 613, N-{4-[({(Z)-(Cyanoamino)[(2-methoxypyridin-4-yl)amino]methylidene}amino)methyl]phenyl} biphenyl-2-sulfonamide] | ~2.6 | –
– | O=c1[nH]c(CCCN2CC=C(c3ccccc3)CC2)nc2cccc(Cl)c12 [FR247304] | – | neuronal damage (PARP): attenuate neuronal damage
– | Oc1cccc(-c2nc(N3CCOCC3)c3oc4ncccc4c3n2)c1 [PI-103] | – | drug interaction (synergy, additivity, or antagonism) with Nampt inhibitor (HCT116 cells [3]): synergized
~0.0008 | N#Cc1ccc(S(=O)(=O)Nc2ccc(NC(=O)NCc3cccnc3)cc2)c(Cl)c1 [Example 580, 2-Chloro-4-cyano-N-(4-{[(pyridin-3-ylmethyl)carbamoyl]amino}phenyl) benzenesulfonamide] | ~0.1 | –
~0.01 | CN(C)CCOc1cccc(-c2ccccc2CCOc2ccc(NC(=O)NCc3cccnc3)cc2)c1 [Example 797, 1-[4-(2-{3′-[2-(Dimethylamino)ethoxy]biphenyl-2-yl}ethoxy)phenyl]-3-(pyridin-3-ylmethyl)urea] | – | –
~0.52 | N#C/N=C(/NCC(=O)NCCOc1ccccc1-c1ccccc1)Nc1ccncc1 [Example 634, (Z)-N-[2-(Biphenyl-2-yloxy)ethyl]-N~2~- [(cyanoamino)(pyridin-4-ylamino)methylidene] glycinamide] | ~5 | –

— patent US20130317027A1, “COMPOUNDS AND THERAPEUTIC USES THEREOF” (Myrexis, Inc, priority 2010, published 2013)
